Results taken from PubChem BioAssay AID256 (DTP/NCI, 2004).
Several values for one entry are separate records, joined by “and”; a condition that tells them apart may be missing. Equal values may be shown once. Inconclusive results and toxic doses are left out. The calls were made as follows: active = survival T/C of 150% or more; inactive = T/C below 125% in these data.

Tested on: CD2F1 mice, L1210 leukemia ip, survival T/C
Assay: NCI In Vivo Anticancer Drug Screen. Data for tumor model L1210 Leukemia (intraperitoneal) in CD2F1 (CDF1) mice
Conditions: higher = longer survival
Summary of the method: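 Tumor-bearing mice (transplanted tumor) were split into treated and vehicle control groups, and the measured endpoint of each treated group was divided by that of its vehicle controls.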

[1] = endpoint: median survival time, dose: 50.0 mg/kg/injection, schedule: Q04DX002 (ip), vehicle: saline with Tween-80
[2] = endpoint: median survival time, dose: 100.0 mg/kg/injection, schedule: Q04DX002 (ip), vehicle: saline with Tween-80
[3] = endpoint: median survival time, dose: 200.0 mg/kg/injection, schedule: Q04DX002 (ip), vehicle: saline with Tween-80
[4] = endpoint: mean survival time, dose: 100.0 mg/kg/injection, schedule: Q04DX003 (ip), vehicle: saline with Tween-80
[5] = endpoint: mean survival time, dose: 200.0 mg/kg/injection, schedule: Q04DX003 (ip), vehicle: saline with Tween-80
[6] = endpoint: mean survival time, dose: 400.0 mg/kg/injection, schedule: Q04DX003 (ip), vehicle: saline with Tween-80
[7] = endpoint: mean survival time, dose: 50.0 mg/kg/injection, schedule: Q01DX009 (ip), vehicle: saline with Tween-80
[8] = endpoint: mean survival time, dose: 100.0 mg/kg/injection, schedule: Q01DX009 (ip), vehicle: saline with Tween-80
[9] = endpoint: mean survival time, dose: 200.0 mg/kg/injection, schedule: Q01DX009 (ip), vehicle: saline with Tween-80
[10] = endpoint: mean survival time, dose: 100.0 mg/kg/injection, schedule: Q01DX001 (ip), vehicle: saline with Tween-80
[11] = endpoint: mean survival time, dose: 200.0 mg/kg/injection, schedule: Q01DX001 (ip), vehicle: saline with Tween-80
[12] = endpoint: mean survival time, dose: 400.0 mg/kg/injection, schedule: Q01DX001 (ip), vehicle: saline with Tween-80
[13] = endpoint: mean survival time, dose: 12.5 mg/kg/injection, schedule: Q01DX009 (ip), vehicle: saline with Tween-80
[14] = endpoint: mean survival time, dose: 25.0 mg/kg/injection, schedule: Q01DX009 (ip), vehicle: saline with Tween-80
[15] = endpoint: mean survival time, dose: 400.0 mg/kg/injection, schedule: Q01DX009 (ip), vehicle: saline with Tween-80
[16] = endpoint: mean survival time, dose: 50.0 mg/kg/injection, schedule: Q04DX002 (ip), vehicle: saline with Tween-80

Measured: T/C

c1ccc(C2NC2c2ccccc2)cc1 (stereo not drawn)
inactive: [1] 100 % of control | [2] 100 % of control | [3] 100 % of control | endpoint: median survival time, dose: 400.0 mg/kg/injection, schedule: Q04DX002 (ip), vehicle: saline with Tween-80 100 % of control

CC(C)CC(Br)C(=O)NC(CC(C)C)C(=O)O (stereo not drawn)
inactive: [4] 95 % of control | [5] 105 % of control | [6] 94 % of control

Oc1ccc(CCCl)cc1
inactive: [7] 91 % of control | [8] 102 % of control | [9] 102 % of control

Cc1ccc(C)n1-c1ccccc1
inactive: endpoint: mean survival time, dose: 100.0 mg/kg/injection, schedule: Q01DX009 (ip), vehicle: saline + alcohol 107 % of control | [4] 103 % of control | endpoint: mean survival time, dose: 200.0 mg/kg/injection, schedule: Q01DX009 (ip), vehicle: saline + alcohol 105 % of control | [5] 106 % of control | endpoint: mean survival time, dose: 400.0 mg/kg/injection, schedule: Q01DX009 (ip), vehicle: saline + alcohol 100 % of control | [6] 95 % of control

N#Cc1nc(N)nc2c1ncn2C1OC(CO)C(O)C1O (stereo not drawn)
inactive: endpoint: median survival time, dose: 8.75 mg/kg/injection, schedule: Q01DX005 (ip), vehicle: distilled water + Tween-80 100 % of control | endpoint: median survival time, dose: 17.5 mg/kg/injection, schedule: Q01DX005 (ip), vehicle: distilled water + Tween-80 107 % of control | endpoint: median survival time, dose: 35.0 mg/kg/injection, schedule: Q01DX005 (ip), vehicle: distilled water + Tween-80 100 % of control | endpoint: median survival time, dose: 70.0 mg/kg/injection, schedule: Q01DX005 (ip), vehicle: distilled water + Tween-80 100 % of control | endpoint: median survival time, dose: 140.0 mg/kg/injection, schedule: Q01DX005 (ip), vehicle: distilled water + Tween-80 101 % of control

CC(=O)Nc1ccc(Cc2[nH]c(=O)[nH]c(=O)c2Br)cc1[N+](=O)[O-]
inactive: [10] 95 % of control | [11] 91 % of control | [12] 89 % of control

CC(=O)Nc1nn(C)c(C#N)c1C#N
inactive: endpoint: mean survival time, dose: 37.5 mg/kg/injection, schedule: Q04DX002 (ip), vehicle: saline with Tween-80 106 % of control | endpoint: mean survival time, dose: 75.0 mg/kg/injection, schedule: Q04DX002 (ip), vehicle: saline with Tween-80 106 % of control | endpoint: mean survival time, dose: 150.0 mg/kg/injection, schedule: Q04DX002 (ip), vehicle: saline with Tween-80 102 % of control

O=C1NC2C=CC3C=CC=CC2C13 (stereo not drawn)
inactive: endpoint: median survival time, dose: 25.0 mg/kg/injection, schedule: Q04DX002 (ip), vehicle: saline with Tween-80 100 % of control | [1] 100 % of control | [2] 100 % of control | [3] 100 % of control

Cn1cnc([N+](=O)[O-])c1SCC(=O)O
inactive: [13] 95 % of control | endpoint: mean survival time, dose: 12.5 mg/kg/injection, schedule: Q01DX009 (ip), vehicle: saline 109 % of control | [14] 98 % of control | endpoint: mean survival time, dose: 25.0 mg/kg/injection, schedule: Q01DX009 (ip), vehicle: saline 112 % of control | [7] 95 % of control | endpoint: mean survival time, dose: 50.0 mg/kg/injection, schedule: Q01DX009 (ip), vehicle: saline 109 % of control | [8] 98 % of control | endpoint: mean survival time, dose: 100.0 mg/kg/injection, schedule: Q01DX009 (ip), vehicle: saline 101 % of control | [9] 104 % of control | endpoint: mean survival time, dose: 200.0 mg/kg/injection, schedule: Q01DX009 (ip), vehicle: saline 104 % of control | [15] 98 % of control | endpoint: mean survival time, dose: 400.0 mg/kg/injection, schedule: Q01DX009 (ip), vehicle: saline 109 % of control

Cc1c(Cl)cc(Cl)c(N)c1Cl
inactive: [8] 93 % of control | [9] 97 % of control | [15] 97 % of control

CCC(/C=N/N=C(N)N)=N\N=C(N)N
inactive: endpoint: mean survival time, dose: 15.0 mg/kg/injection, schedule: Q01DX010 (ip), vehicle: saline 95 % of control | endpoint: mean survival time, dose: 60.0 mg/kg/injection, schedule: Q01DX010 (ip), vehicle: saline 101 % of control

CC1(c2ccccc2)CCc2ccccc21 (stereo not drawn)
inactive: [8] 97 % of control | [9] 95 % of control | [15] 95 % of control

O=C(OC1COC(OC(=O)c2ccccc2)C(OC(=O)c2ccccc2)C1OC(=O)c1ccccc1)c1ccccc1 (stereo not drawn)
inactive: [8] 97 % of control | [4] 101 % of control | [9] 95 % of control | [5] 86 % of control | [15] 97 % of control | [6] 95 % of control

CC1=NCCCN=C(C)C(C)=NCCCN=C1C.[Ni+2].[O-][Cl+3]([O-])([O-])O
inactive: endpoint: mean survival time, dose: 25.0 mg/kg/injection, schedule: Q04DX003 (ip), vehicle: saline 91 % of control | [16] 96 % of control | endpoint: mean survival time, dose: 50.0 mg/kg/injection, schedule: Q04DX003 (ip), vehicle: saline 94 % of control

Cc1ccc(SC(=O)Cc2ccc([N+](=O)[O-])cc2)cc1
inactive: [10] 92 % of control | [11] 88 % of control | [12] 93 % of control

C=CCCCC[P+](c1ccccc1)(c1ccccc1)c1ccccc1
inactive: endpoint: mean survival time, dose: 3.0 mg/kg/injection, schedule: Q01DX015 (ip), vehicle: saline 97 % of control | endpoint: mean survival time, dose: 12.0 mg/kg/injection, schedule: Q01DX015 (ip), vehicle: saline 100 % of control | endpoint: mean survival time, dose: 24.0 mg/kg/injection, schedule: Q01DX015 (ip), vehicle: saline 97 % of control

CCOC(=O)CNC(=O)c1ccc(N(CCCl)CCCl)cc1
inactive: endpoint: mean survival time, dose: 100.0 mg/kg/injection, schedule: Q04DX003 (ip), vehicle: Klucel (hydroxypropylcellulose) (HPC) 95 % of control | endpoint: mean survival time, dose: 200.0 mg/kg/injection, schedule: Q04DX003 (ip), vehicle: Klucel (hydroxypropylcellulose) (HPC) 96 % of control | endpoint: mean survival time, dose: 400.0 mg/kg/injection, schedule: Q04DX003 (ip), vehicle: Klucel (hydroxypropylcellulose) (HPC) 104 % of control

O=C(C[n+]1cccc(C(=O)NCc2ccccc2)c1)Nc1ccccc1
inactive: endpoint: mean survival time, dose: 100.0 mg/kg/injection, schedule: Q04DX003 (ip), vehicle: saline 96 % of control

c1ccc2sc(SSN3CC4CCC(CC4)C3)nc2c1
inactive: [13] 97 % of control and 108 % of control | [14] 93 % of control and 101 % of control | [7] 102 % of control and 103 % of control | [8] 101 % of control and 108 % of control | [9] 95 % of control and 108 % of control | [15] 103 % of control

Nc1ncnc(N)c1NC(=O)c1ccc(CCCCc2ccccc2)cc1
inactive: [4] 104 % of control | [5] 96 % of control | [6] 92 % of control

O=C1OCc2ccc3ccccc3c21
inactive: endpoint: mean survival time, dose: 50.0 mg/kg/injection, schedule: Q01DX001 (ip), vehicle: saline 97 % of control | endpoint: mean survival time, dose: 100.0 mg/kg/injection, schedule: Q01DX001 (ip), vehicle: saline 89 % of control | endpoint: mean survival time, dose: 200.0 mg/kg/injection, schedule: Q01DX001 (ip), vehicle: saline 93 % of control | endpoint: mean survival time, dose: 400.0 mg/kg/injection, schedule: Q01DX001 (ip), vehicle: saline 93 % of control

Cc1cc(O)c2c(c1)C(=O)C=CC2=O
inactive: endpoint: mean survival time, dose: 0.12 mg/kg/injection, schedule: Q01DX009 (ip), vehicle: other 102 % of control | endpoint: mean survival time, dose: 0.25 mg/kg/injection, schedule: Q01DX009 (ip), vehicle: other 108 % of control | endpoint: mean survival time, dose: 0.5 mg/kg/injection, schedule: Q01DX009 (ip), vehicle: other 97 % of control | endpoint: mean survival time, dose: 1.0 mg/kg/injection, schedule: Q01DX009 (ip), vehicle: other 93 % of control | endpoint: mean survival time, dose: 2.0 mg/kg/injection, schedule: Q01DX009 (ip), vehicle: other 97 % of control

O=C(O)C(O)(C1CCCCC1)C1CCC2CCC3CCCC1C32 (stereo not drawn)
inactive: [4] 105 % of control | [5] 87 % of control | [6] 105 % of control

CN1N=C(N)c2cn(C3OC(CO)C4OC(C)(C)OC43)c3ncnc1c23 (stereo not drawn)
inactive: endpoint: mean survival time, dose: 12.5 mg/kg/injection, schedule: Q01DX005 (ip), vehicle: water 87 % of control | endpoint: mean survival time, dose: 25.0 mg/kg/injection, schedule: Q01DX005 (ip), vehicle: water 96 % of control | endpoint: mean survival time, dose: 50.0 mg/kg/injection, schedule: Q01DX005 (ip), vehicle: water 104 % of control | endpoint: mean survival time, dose: 100.0 mg/kg/injection, schedule: Q01DX005 (ip), vehicle: water 104 % of control

Cc1cc(C(C(N)=O)c2ccccc2)ccc1N(CCCl)CCCl (stereo not drawn)
inactive: endpoint: mean survival time, dose: 88.8 mg/kg/injection, schedule: Q01DX001 (ip), vehicle: other 122 % of control | endpoint: mean survival time, dose: 300.0 mg/kg/injection, schedule: Q01DX001 (ip), vehicle: other 104 % of control

CC(=Nc1ccccc1)C1=C(O)C(Cc2ccc(F)cc2)NC1=O (stereo not drawn)
inactive: endpoint: mean survival time, dose: 12.5 mg/kg/injection, schedule: Q04DX002 (ip), vehicle: saline with Tween-80 103 % of control | endpoint: mean survival time, dose: 25.0 mg/kg/injection, schedule: Q04DX002 (ip), vehicle: saline with Tween-80 100 % of control | [16] 100 % of control

O=S(=O)(Nc1c(O)ccc2ccccc12)c1ccccc1
inactive: [4] 97 % of control | [5] 97 % of control | [6] 92 % of control
